{
  "source": "paper PMC10131204",
  "about": "(JACS Au, 2023)",
  "key": {"FKBP-cSnap and FRB-nSnap": {"system": "FKBP-cSnap and FRB-nSnap", "assay_type": "biochemical"}, "DOR [1]": {"target": "DOR", "conditions": "cited from earlier work"}, "DOR [2]": {"system": "DOR", "assay_type": "cell-based", "conditions": "10 µM compound, off-DNA"}},
  "note": "Read-outs that look alike come from different tables or passages of the source.",
  "data": [
    {"compound": "CCC(C)(C)C(=O)C(=O)N1CCCC[C@H]1C(=O)O[C@H](CCc1ccc(OC)c(OC)c1)c1cccc(OCC(=O)O)c1", "note": "[SLF, synthetic ligand for FKBP]", "values": [
      {"measurement": "protein labeling with BG-FAM (SnapTag reconstitution)", "setting": "FKBP-cSnap and FRB-nSnap", "value": "did not induce protein labeling"}
    ]},
    {"compound": "Dmt-Pro-Phe-Phe", "values": [
      {"measurement": "Ki", "setting": "DOR [1]; high-affinity parental peptide", "value": "~28", "unit": "nM"}
    ]},
    {"compound": "Met-Enk-RF: a β-arrestin-biased DOR agonist peptide; strong G-protein bias for the MOR (YGGFMRF; Met-enkephalin-Arg-Phe; UniProt P01210 261-267, looked up)", "values": [
      {"measurement": "biotinylation of the DOR (β-arrestin activation) in gel-based assay", "setting": "DOR [2]", "value": "markedly increased the biotinylation level"}
    ]},
    {"compound": "Tyr-Tic", "values": [
      {"measurement": "Ki", "setting": "DOR [1]; low-affinity parental peptide", "value": "~240", "unit": "nM"}
    ]}
  ]
}
